Experiment: in vitro
Details: human, hela cells
[1] = % viability, bulk resorufin, single well

Row | SMILES | viability at 28.5 h, 10 µM (% viability) | also measured
1 | O=C(O)CC(CP(c1ccccc1)c1ccccc1)C(=O)O (centres unmarked) [CBK260931] | 77.6% | 
2 | CC(C)(C)NS(=O)(=O)c1ccccc1[N+](=O)[O-] [CBK260932] | 97.8% | 
3 | O=C(O)CCCC(=O)OCc1ccco1 [CBK260933] | 98.1% | 
4 | O=S(=O)(O)c1cc(O)c2c(/N=N/c3c(S(=O)(=O)O)cc4cc(S(=O)(=O)O)cc(O)c4c3O)cc(S(=O)(=O)O)cc2c1 [CBK260934] | 102% | 
5 | C/C(=N\NC(=O)c1ccccc1I)c1cccc(N)c1 [CBK260935] | 107% | 
6 | O=C(O)/C=C(/CC(=O)O)C(=O)O [CBK260936] | 102% | 
7 | O=C(NC(Cc1ccc(O)cc1)C(=O)O)c1ccccc1 (centres unmarked) [CBK260937] | 88.4% | 
8 | CC(CSSCC(C)C(=O)O)C(=O)O (centres unmarked) [CBK260940] | 96.7% | 
9 | CC(Cc1c[nH]c2ccccc12)NC(=O)CSS(=O)(=O)O (centres unmarked) [CBK260942N] | 93.3% | 
10 | COc1ccc2[nH]c(C(=O)O)c(CCNC(C)=O)c2c1 [CBK260943N] | 113% | 
11 | CC(=O)c1ccc2[nH]c(C(=O)O)c(CCN)c2c1 [CBK260944] | 91.6% | 
12 | CC(=O)NCCc1c(C(=O)O)[nH]c2ccc(OCc3ccccc3)cc12 [CBK260945] | 87.8% | 
13 | CCn1c(C)nc2cc(S(N)(=O)=O)ccc21 [CBK260950] | 92.1% | 
14 | O=C(O)CCC(=O)Nc1ccc(C(=O)O)cc1 [CBK260952] | 96.6% | 
15 | O=S(=O)(Nc1nc2ccccc2nc1Nc1ccccc1)c1ccccc1 [CBK260953] | 94.5% | 
16 | O=C(O)C(O)C(O)c1nc2ccccc2[nH]1 (centres unmarked) [CBK260955] | 107% | 
17 | N#Cc1ccc(Oc2ccc(C(=O)C(=O)c3ccccc3)cc2)cc1C#N [CBK260959] | 100% | 
18 | CC(C)(c1ccc(OC(=O)c2ccc(N)cc2)cc1)c1ccc(OC(=O)c2ccc(N)cc2)cc1 [CBK260962] | 91.2% | 
19 | O=C(CCN1C(=O)c2ccccc2C1=O)N1CCOCCOCCN(C(=O)CCN2C(=O)c3ccccc3C2=O)CCOCCOCC1 [CBK260964] | 89.9% | 
20 | NC(=O)CCC(NC=O)C(=O)O (centres unmarked) [CBK260967] | 88.4% | 
21 | CC(C(=O)O)c1cc(C(=O)c2ccccc2)sc1-c1ccccc1 (centres unmarked) [CBK260968] | 91.3% | 
22 | Cc1ccc(N)c(C(=O)CCCCC(=O)O)c1 [CBK260970] | 90.5% | 

Row | SMILES | viability at 28.5 h, 10 µM (% viability) | also measured
23 | O=[N+]([O-])c1ccccc1/C=N/Nc1nnn[nH]1 [CBK260971] | 106% | 
24 | Oc1ccc(/C=N/Nc2nnn[nH]2)c(O)c1 [CBK260972] | 99% | 
25 | c1ccc2c(c1)n[n+]1c3ccccc3[n-]n21 [CBK260974] | 85.7% | 
26 | Cc1cc(C)nc(SCCC(=O)O)n1 [CBK260975] | 87.7% | 
27 | Oc1ccc(/C=N/c2nnn[nH]2)cc1 [CBK260976] | 101% | 
28 | Oc1cccc(/C=N/c2nnn[nH]2)c1 [CBK260977] | 91.7% | 
29 | NCCc1c[nH]c2ccc(OCc3ccccc3)cc12 [CBK260980C] |  | viability at 28.5 h, 10 µM [1]: 84.9%
30 | O=C1C2C(c3ccccc3)NC(c3ccccc3)C1C(c1ccccc1)NC2c1ccccc1 (centres unmarked) [CBK260981] | 93% | 
31 | COc1cccc(/C=C/C2=NN(c3cccc(F)c3)C(c3cccc(OC)c3OC)C2)c1OC (centres unmarked) [CBK260983] | 104% | 
32 | Cc1ccc(S(=O)(=O)OCCOS(=O)(=O)c2ccc(C)cc2)cc1 [CBK260986] | 96.2% | 
33 | O=C(O)/C=C/C(=O)Nc1cccc(C(=O)O)c1 [CBK260988] | 97.7% | 
34 | O=C(O)/C=C\C(=O)NCC(=O)O [CBK260989] | 93.5% | 
35 | N=C(N)SCC1CNC(=N)S1 (centres unmarked) [CBK260991] | 99.3% | 
36 | NNC(=O)c1ccc(Oc2ccc(C(=O)NN)cc2)cc1 [CBK260995] | 85.7% | 
37 | CN(CC(=O)O)c1ccccc1C(=O)O [CBK260996] | 98.2% | 
38 | O=S(=O)([O-])c1cc(S(=O)(=O)O)ccc1Nc1cc2c(nc3ccccc3[n+]2-c2ccccc2)c2ccccc12 [CBK260997N] | 102% | 
39 | [N-]=[N+]=NC1C2OCC(O2)C(OCc2ccccc2)C1O (centres unmarked) [CBK261000] | 90.1% | 
40 | CCOC(=O)CCCCNC(O)C(Cl)(Cl)Cl (centres unmarked) [CBK261003C] | 106% | 
41 | CC1(C)C(N(O)C(=O)Nc2cccc3ccccc23)N(c2cccc3ccccc23)C(=O)N1CC(=O)NN (centres unmarked) [CBK261004] | 88.2% | 
42 | O=C(O)C1CSC(c2ccccc2)N1 (centres unmarked) [CBK261008] | 114% | 
43 | CN1C(=O)/C(=C2\SC(=S)N(C(CCC(=O)O)C(=O)O)C2=O)c2ccccc21 (centres unmarked) [CBK261010] | 92.3% | 
44 | O=C(O)CCC(C(=O)O)N1C(=O)/C(=C\C(Cl)=C/c2ccc([N+](=O)[O-])cc2)SC1=S (centres unmarked) [CBK261011] | 92.1% | 

Row | SMILES | viability at 28.5 h, 10 µM (% viability) | also measured
45 | CN1C(=O)/C(=C2\SC(=S)N(C(CC(=O)O)C(=O)O)C2=O)c2ccccc21 (centres unmarked) [CBK261012] | 107% | 
46 | O=C(O)CC(C(=O)O)N1C(=O)/C(=C\C(Cl)=C/c2ccc([N+](=O)[O-])cc2)SC1=S (centres unmarked) [CBK261013] | 99.2% | 
47 | Nc1n[nH]c(CCCc2nc(N)n[nH]2)n1 [CBK261016] | 89.8% | 
48 | c1ccc(-c2cc(-c3ccccc3)n3nc(Cc4nc5nc(-c6ccccc6)cc(-c6ccccc6)n5n4)nc3n2)cc1 [CBK261017] | 93.1% | 
49 | O=P(O)(O)/C=C(\Cl)c1ccccc1 [CBK261019] |  | viability at 28.5 h, 10 µM: 97.8%
50 | CCC(=O)NC(N(Cc1ccccc1)Cc1ccccc1)C(Cl)(Cl)Cl (centres unmarked) [CBK261022] | 90.9% | 
51 | O=C(NC(N1CCCCC1)C(Cl)(Cl)Cl)c1ccc(Cl)cc1Cl (centres unmarked) [CBK261024] | 91.6% | 
52 | O=C(O)c1ccc(NC(S)=NC(NC(=O)c2ccco2)C(Cl)(Cl)Cl)cc1 (centres unmarked) [CBK261025] | 96.2% | 
53 | CCC(=O)NC(NC(=S)Nc1cccc2cccnc12)C(Cl)(Cl)Cl (centres unmarked) [CBK261027] | 96.1% | 
54 | NC(=O)COc1ccccc1O [CBK261029] | 111% | 
55 | COc1ccc(OCc2nc3ccccc3[nH]2)cc1 [CBK261030] | 94.8% | 
56 | O=C(NC1CCS(=O)(=O)C1)/C(=C\c1ccccc1)NC(=O)c1ccc([N+](=O)[O-])cc1 (centres unmarked) [CBK261034] | 106% | 
57 | O=C(NC(C(=O)c1ccccc1)N1CCCCC1)c1ccccc1 (centres unmarked) [CBK261035] | 123% | 
58 | O=C(NC(n1cnc2c(N3CCCCC3)ncnc21)C(Cl)(Cl)Cl)c1ccccc1 (centres unmarked) [CBK261038] | 98.5% | 
59 | COc1cc(C(=O)NCC(=O)O)cc(OC)c1OC [CBK261039] | 89.9% | 
60 | COc1ccc(C(=O)NCCc2nc3ccccc3[nH]2)cc1 [CBK261040] | 101% | 
61 | CC(C)C(Nc1c([N+](=O)[O-])cc(C(F)(F)F)cc1[N+](=O)[O-])C(=O)O (centres unmarked) [CBK261041] |  | viability at 28.5 h, 10 µM [1]: 96.4%
62 | O=C(COc1ccc(Cl)cc1)NNC(=O)c1cccnc1 [CBK261044] | 97.4% | 
63 | O=C(/C=C/c1ccccc1)NC(NC(=S)Nc1cccc2cccnc12)C(Cl)(Cl)Cl (centres unmarked) [CBK261046] | 101% | 
64 | CC(C)C(=O)NC(NC(=S)Nc1sc2c(c1C(N)=O)CCCC2)C(Cl)(Cl)Cl (centres unmarked) [CBK261050] | 94% | 
65 | CC(C)(C)C(=O)NC(NC(=S)Nc1sc2c(c1C(N)=O)CCCC2)C(Cl)(Cl)Cl (centres unmarked) [CBK261052] | 94.7% | 

— PMC12040169 (PLOS Biology, 2025)
